Calls of active or inactive are those of the source.
Experiments:
[1] = target: T1, DNA repair protein RAD52 homolog (Homo sapiens, UniProt P43351); format: functional, biochemical
T1 sequence (P43351 whole entry): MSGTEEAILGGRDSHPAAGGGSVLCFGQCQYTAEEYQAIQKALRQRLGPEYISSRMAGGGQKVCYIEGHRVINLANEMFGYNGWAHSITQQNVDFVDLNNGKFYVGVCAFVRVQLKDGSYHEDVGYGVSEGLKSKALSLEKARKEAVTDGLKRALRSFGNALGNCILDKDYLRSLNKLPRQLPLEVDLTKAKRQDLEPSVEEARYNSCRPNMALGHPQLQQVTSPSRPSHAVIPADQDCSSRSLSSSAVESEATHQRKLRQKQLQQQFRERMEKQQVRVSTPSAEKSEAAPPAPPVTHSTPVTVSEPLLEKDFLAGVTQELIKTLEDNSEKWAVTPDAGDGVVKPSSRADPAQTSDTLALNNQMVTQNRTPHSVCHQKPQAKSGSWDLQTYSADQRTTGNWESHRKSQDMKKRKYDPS

Genome polyprotein = Genome polyprotein (dengue virus type 2, UniProt P29990); assay: Dengue-2 NS5 methyltransferase inhibitors, primary screen, biochemical, confirmation dose response (AID 588689); format: functional
[2] = target: T2, Long-chain-fatty-acid--AMP ligase FadD28 (Mycobacterium tuberculosis, UniProt P9WQ59); assay: Fluorescence polarization aasay to screen for inhibitors that compete for the binding of FadD28 to a bisubstrate Measured in Biochemical System Using Plate Reader - 2147-01_Inhibitor_Dose_CherryPick_Activity.; format: functional, Mycobacterium tuberculosis H37Rv
T2 sequence (P9WQ59 whole entry): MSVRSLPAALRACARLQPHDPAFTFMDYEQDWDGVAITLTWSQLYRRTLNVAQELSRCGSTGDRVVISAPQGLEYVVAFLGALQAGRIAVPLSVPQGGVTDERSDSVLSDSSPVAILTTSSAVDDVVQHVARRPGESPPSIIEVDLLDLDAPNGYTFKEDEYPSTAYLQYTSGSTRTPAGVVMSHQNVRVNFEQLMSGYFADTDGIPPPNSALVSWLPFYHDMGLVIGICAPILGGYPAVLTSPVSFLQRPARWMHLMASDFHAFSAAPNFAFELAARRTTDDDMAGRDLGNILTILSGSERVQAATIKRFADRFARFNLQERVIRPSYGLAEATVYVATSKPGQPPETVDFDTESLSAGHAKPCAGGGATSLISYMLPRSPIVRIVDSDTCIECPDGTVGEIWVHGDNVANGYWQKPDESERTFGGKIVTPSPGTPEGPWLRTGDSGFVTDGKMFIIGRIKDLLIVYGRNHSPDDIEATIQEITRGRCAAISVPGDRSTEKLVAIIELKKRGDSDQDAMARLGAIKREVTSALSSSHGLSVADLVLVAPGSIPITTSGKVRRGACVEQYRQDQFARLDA

Protein Wnt-3a = Protein Wnt-3a (Mus musculus, UniProt P27467); assay: Wnt3a-driven reporter signaling inhibition, dose response, selectivity assay for Gli-SUFU antagonist project, Wnt-LIGHT cells, luminescence (AID 651570); format: functional; settings: read-out: IC50_Mean;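 note: Wnt-LIGHT reporter cells stimulated with conditioned medium from Wnt3a-producing cells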
[3] = target: T3, Corticotropin-releasing factor receptor 2/Corticotropin-releasing factor-binding protein (Homo sapiens, UniProt P24387+Q13324); assay: activators of CRF receptor 2 with binding protein – uHTS hits, confirmation (AID 602473); format: functional; settings: read-out: EC50_Mean
T3 sequence (Q13324 whole entry): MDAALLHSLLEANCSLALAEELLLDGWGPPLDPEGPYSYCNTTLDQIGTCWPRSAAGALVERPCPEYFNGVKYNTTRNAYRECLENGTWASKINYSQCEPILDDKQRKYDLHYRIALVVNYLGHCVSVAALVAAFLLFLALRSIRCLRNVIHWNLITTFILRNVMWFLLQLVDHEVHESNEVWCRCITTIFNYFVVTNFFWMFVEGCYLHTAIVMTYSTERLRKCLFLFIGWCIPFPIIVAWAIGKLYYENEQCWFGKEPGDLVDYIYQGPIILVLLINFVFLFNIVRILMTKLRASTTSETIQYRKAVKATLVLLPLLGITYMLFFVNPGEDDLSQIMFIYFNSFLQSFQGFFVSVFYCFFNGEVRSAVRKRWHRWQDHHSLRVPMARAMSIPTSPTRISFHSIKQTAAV
T3 sequence (P24387 whole entry): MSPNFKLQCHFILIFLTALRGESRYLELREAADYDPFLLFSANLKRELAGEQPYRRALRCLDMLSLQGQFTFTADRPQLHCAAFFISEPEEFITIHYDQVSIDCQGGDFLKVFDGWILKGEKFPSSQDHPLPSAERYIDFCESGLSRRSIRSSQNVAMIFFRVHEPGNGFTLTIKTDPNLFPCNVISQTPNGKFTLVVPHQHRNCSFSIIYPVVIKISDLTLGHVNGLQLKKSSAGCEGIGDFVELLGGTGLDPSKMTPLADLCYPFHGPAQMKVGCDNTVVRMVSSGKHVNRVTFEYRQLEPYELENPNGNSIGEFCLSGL

[4] = C. albicans growth with fluconazole, confirmation, fluorescence, retest (AID 2467); format: functional, cell-based
[5] = NIH-3T3 fibroblast cytotoxicity, dose response, cytotoxicity control, cell-based, fluorescence, Alamar Blue, secondary assay (AID 2327); format: functional;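 note: NIH-3T3 mouse fibroblasts cultured with fluconazole at 8 µg/mL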
[6] = target: T4, Adenosylmethionine-8-amino-7-oxononanoate aminotransferase (Mycobacterium tuberculosis, UniProt P9WQ81); assay: Mycobacterium tuberculosis BioA enzyme inhibitor Measured in Biochemical System Using Plate Reader - 2163-02_Inhibitor_Dose_CherryPick_Activity.; format: functional, Mycobacterium tuberculosis UT205
T4 sequence (P9WQ81 whole entry): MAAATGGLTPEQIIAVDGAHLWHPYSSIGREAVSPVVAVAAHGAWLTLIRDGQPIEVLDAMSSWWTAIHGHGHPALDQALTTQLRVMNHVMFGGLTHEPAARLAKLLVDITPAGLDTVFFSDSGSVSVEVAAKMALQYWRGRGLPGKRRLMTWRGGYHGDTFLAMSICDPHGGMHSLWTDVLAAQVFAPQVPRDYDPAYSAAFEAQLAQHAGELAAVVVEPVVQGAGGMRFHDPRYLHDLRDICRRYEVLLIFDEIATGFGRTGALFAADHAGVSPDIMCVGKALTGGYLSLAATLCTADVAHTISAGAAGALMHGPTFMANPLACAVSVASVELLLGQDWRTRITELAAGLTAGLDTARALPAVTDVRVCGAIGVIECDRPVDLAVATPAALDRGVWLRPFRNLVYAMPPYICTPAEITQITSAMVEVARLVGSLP

[7] = Shn3 3'UTR reporter inhibitors, dose response, cell-based, Clone20 osteoblasts, firefly luciferase, cherry-picked (AID 624132); format: functional;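 note: firefly luciferase luminescence from reporter carrying the Shn3 3'UTR in osteoblasts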
[8] = control 3'UTR Renilla luciferase suppression, dose response, counter-screen for Shn3 inhibitor project, cell-based, Clone20-Shn3RL, cherry-picked (AID 624133); format: functional
[9] = inhibitors of clade B AD8 Env fusion, dose response, cell-based, cherry-pick (AID 652062); format: functional;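 note: luciferase signal from cell-cell fusion driven by HIV-1 clade B AD8 Env; potency is for inhibitors of fusion seen as a drop in luminescence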
[10] = off-target signal loss in HeLa-CEM21 co-culture – HeLa F-luc CTL cells, cherry-picked, counter-screen for HIV-1 Env fusion inhibitor project, dose response (AID 652040); format: functional, cell-based;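 note: potency for signal decrease marking cytotoxic or nonspecific inhibition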
[11] = ZM109 Env clade C HIV-1 fusion inhibitors, dose response, HeLa effector, CEM target cells, luciferase, cherry-pick (AID 652058); format: functional, cell-based
[12] = inhibitors of HIV Env-driven cell fusion, dose response, cherry-pick (AID 652057); format: functional, cell-based
[13] = intracellular Trypanosoma cruzi inhibitors in host cells – cell-based, plate reader, cherry-pick samples, set 3, dose response (AID 651818); format: functional;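 note: compounds incubated with infected cells for about four days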

Chain of Protein Wnt-3a (P27467 whole entry): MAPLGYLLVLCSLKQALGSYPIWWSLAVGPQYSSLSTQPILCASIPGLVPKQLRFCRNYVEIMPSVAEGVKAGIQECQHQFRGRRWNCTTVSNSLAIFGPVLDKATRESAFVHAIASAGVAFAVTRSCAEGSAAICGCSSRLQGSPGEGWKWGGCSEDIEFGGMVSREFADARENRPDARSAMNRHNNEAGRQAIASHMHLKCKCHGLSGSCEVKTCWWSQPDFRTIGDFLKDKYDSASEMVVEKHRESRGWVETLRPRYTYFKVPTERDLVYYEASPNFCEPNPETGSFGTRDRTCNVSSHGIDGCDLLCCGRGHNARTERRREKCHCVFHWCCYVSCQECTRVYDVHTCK
Chain of Genome polyprotein (P29990 2492-3391 limits assumed): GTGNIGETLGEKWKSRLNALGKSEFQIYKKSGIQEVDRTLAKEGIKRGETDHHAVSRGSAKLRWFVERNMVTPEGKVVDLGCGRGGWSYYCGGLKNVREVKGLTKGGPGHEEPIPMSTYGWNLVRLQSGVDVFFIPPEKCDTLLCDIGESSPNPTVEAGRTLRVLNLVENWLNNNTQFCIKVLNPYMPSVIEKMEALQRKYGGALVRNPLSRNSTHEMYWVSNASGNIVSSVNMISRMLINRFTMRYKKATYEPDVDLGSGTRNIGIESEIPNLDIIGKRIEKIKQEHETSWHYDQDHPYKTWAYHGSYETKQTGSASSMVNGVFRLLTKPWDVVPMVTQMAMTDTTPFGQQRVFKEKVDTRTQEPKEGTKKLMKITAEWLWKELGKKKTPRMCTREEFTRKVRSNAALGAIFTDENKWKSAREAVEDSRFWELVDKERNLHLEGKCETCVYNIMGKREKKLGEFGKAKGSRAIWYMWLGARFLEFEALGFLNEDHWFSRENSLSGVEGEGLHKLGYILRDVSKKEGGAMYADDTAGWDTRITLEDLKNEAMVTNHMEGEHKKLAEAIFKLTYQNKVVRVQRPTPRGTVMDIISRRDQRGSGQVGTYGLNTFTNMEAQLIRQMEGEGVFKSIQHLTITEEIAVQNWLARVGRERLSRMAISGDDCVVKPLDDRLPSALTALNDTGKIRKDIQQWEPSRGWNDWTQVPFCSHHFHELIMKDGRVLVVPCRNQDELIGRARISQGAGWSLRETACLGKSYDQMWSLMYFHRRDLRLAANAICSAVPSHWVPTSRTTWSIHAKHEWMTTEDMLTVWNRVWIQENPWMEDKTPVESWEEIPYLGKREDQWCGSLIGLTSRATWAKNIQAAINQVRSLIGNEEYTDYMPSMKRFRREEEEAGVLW

Compound: CCN(CC)CCN(Cc1cc2cc3c(cc2nc1O)OCCO3)C(S)=NCCCN(C)C
- AC50 [1]: 12.9 µM (active)

Compound: O=C(O)c1[nH]c2ccccc2c1C(c1ccccc1)c1c(C(=O)O)[nH]c2ccccc12
- IC50 (Genome polyprotein): 16.7 µM (active)
- AC50 [2]: 36.5 µM (active)

Compound: CC(C)Cc1ccc(C(C)C(=O)Nc2cccnc2)cc1 (stereo not given)
- IC50 (Protein Wnt-3a): 5.34 µM (active)
- EC50 [3]: > 53 µM (inactive)

Compound: C[N+]1(CC(=O)OC2CCCCCCCCCCC2)CCCC1
- IC50 (Protein Wnt-3a): 28 µM (inactive)
- EC50 [4]: 1.65 µM (active)
- EC50 [5]: > 150 µM (inconclusive)

Compound: O=C(O)COc1ccccc1-c1nc(-c2ccccc2)c(-c2ccccc2)[nH]1
- AC50 [2]: > 100 µM (inactive)

Compound: O=C(CSc1nc2c(c(=O)n1-c1ccccc1)SCC2)N1CCN(c2ccccc2)CC1
- AC50 [6]: 1.08 µM (active)

Compound: CCC(CC)CN1C(N(C)C)=NC[C@@H]1CC(C)C
- IC50 (Protein Wnt-3a): 5.72 µM (active)
- AC50 [7]: 0.717 µM (active)
- AC50 [8]: 1.84 µM (active)

Compound: N#CC1=C(N)N(c2ccccc2)C(c2ccco2)C1(C#N)C#N (stereo not given)
- AC50 [2]: > 100 µM (inactive)

Compound: O=C(CSc1nc2ccccc2c(=O)n1-c1ccccc1)N1CCN(CCO)CC1
- AC50 [6]: 12.3 µM (active)

Compound: C[C@@]12C(=O)N(CC3CCCO3)CC(=O)N1[C@H]1c3cc(Cl)ccc3OC[C@@H]1[C@@H]2c1ccccc1 (stereo not given in full)
- AC50 [9]: 2.52 µM (active)
- AC50 [10]: 2.05 µM (active)
- AC50 [11]: 2.64 µM (active)
- AC50 [12]: 1.34 µM (active)

Compound: COc1cccc(NC(=O)CN(C)C(=O)c2ccc(S(=O)(=O)Nc3ccccc3C)cc2)c1
- AC50 [2]: > 100 µM (inactive)

Compound: C[C@@H]1CN([C@@H](C)CO)C(=O)c2cccc(NC(=O)C3CCCCC3)c2O[C@@H]1CN(C)Cc1ccc(C(=O)Nc2ccccc2N)cc1
- AC50 [13]: 1.33 µM (active)

Compound: Cc1ccc(S(=O)(=O)Nc2ccc3c(c2)CC(=O)N([C@H](C)CO)C[C@@H](C)[C@@H](CN(C)S(=O)(=O)c2cccs2)O3)cc1
- AC50 [13]: 2.5 µM (active)

Compound: CO[C@H]1CN(C)C(=O)c2ccc(NC(C)=O)cc2OC[C@@H](C)N(C(=O)c2ccc(F)cc2)C[C@H]1C
- AC50 [6]: 11.5 µM (active)

Compound: C[C@H]1CN([C@@H](C)CO)C(=O)c2cccc(NC(=O)c3ccncc3)c2O[C@H]1CN(C)Cc1ccc(Cl)c(Cl)c1
- AC50 [13]: 0.08 µM (active)

Compound: C[C@H](CO)N1C[C@H](C)[C@H](CN(C)C(=O)Nc2cccc3ccccc23)Oc2c(NC(=O)c3ccncc3)cccc2C1=O
- AC50 [13]: 3.57 µM (active)

Compound: COCCNC(=O)C[C@@H]1CC[C@@H]2[C@H](COc3ccc(NC(=O)Nc4cccc(F)c4)cc3C(=O)N2C)O1
- AC50 [6]: 4.17 µM (active)

Compound: CC(=O)Nc1cc(-c2ccc(N3CCN(C)CC3)cc2)cn2c(-c3cccc(C(=O)N(C)C)c3)cnc12
- AC50 [1]: 8.58 µM (active)

Compound: CO[C@H](C(=O)N(C)C[C@@H]1OCc2ccccc2-c2c(n(C)c3ccccc23)C(=O)N([C@H](C)CO)C[C@@H]1C)c1ccccc1
- AC50 [9]: 6.84 µM (active)
- AC50 [10]: 15.4 µM (active)
- AC50 [11]: 10.2 µM (active)
- AC50 [12]: 6.28 µM (active)

Compound: CCCC[C@H](CN(N=O)[C@@H](Cc1ccccc1)CN(C)N=O)N(CCc1ccccc1)N=O
- AC50 [9]: 20.6 µM (active)
- AC50 [10]: 6.02 µM (active)
- AC50 [11]: 8.46 µM (active)
- AC50 [12]: 3.32 µM (active)
